From paper PMC6131557, “Selective Cytotoxicity of Dihydroorotate Dehydrogenase Inhibitors to Human Cancer Cells Under Hypoxia and Nutrient-Deprived Conditions” (Frontiers in Pharmacology, 2018)
Where two headings read alike, the source gives them in different places.

Assays:
[1] = molecular target: T1, human dihydroorotate dehydrogenase (HsDHODH) (Homo sapiens, UniProt Q02127); assay: Inhibition of recombinant human DHODH enzyme activity; format: biochemical; conditions: recombinant human DHODH; purified enzyme fixed at 10 nM; read-out: IC50 (nM), inhibition of human DHODH
T1 construct: made in house

DLD-1 cells = assay: Cytotoxicity assay (Cell Counting Kit-8 / WST-8) on DLD-1 cells; format: cell-based, human; conditions: Homo sapiens
Method: (§1) For hypoxia and nutrient-deprived culture conditions, cells were incubated under 1% oxygen in glucose and glutamine-free DMEM (Gibco) without FBS.
(§2) DLD-1 or HDF cells were seeded at 2.5 × 10^4 cells/well on a 96-well plate with normal medium, and cultured overnight under normal culture condition. The cells were washed with PBS and the medium was replaced to either normal medium or glucose and glutamine-free DMEM without FBS. Test compounds or DMSO as a control were added to the wells. The cells in normal medium were cultured under normal culture conditions, while cells in nutrient-deprived medium were cultured under hypoxia condition. After 24 or 48 h incubation, the cells were washed with PBS, 100 μl of fresh normal medium, and 10 μl of Cell Counting Kit-8 solution (Donjindo, Japan) was added to each well. After 3 h incubation under normal culture condition, the absorbance was measured at 450 nm using SpectraMax M2e-TUY microplate reader (Molecular Devices). Cell viability of test wells was calculated based on absorbance of control wells containing DMSO according to manufacturer’s protocol.

HDF cells = assay: Cytotoxicity assay (Cell Counting Kit-8 / WST-8) on HDF cells; format: cell-based; conditions: Homo sapiens
Method: as §1, §2

Complexes I–III = assay: NADH-cytochrome c reductase (complexes I–III) activity, bovine mitochondria; format: biochemical
Method: (§3) Recombinant human DHODH was purified, crystallized, and assayed as previously described ([Inaoka et al., 2016]) without modification. Bovine mitochondrial fractions were prepared as previously described ([Kita et al., 1988]) and NADH dehydrogenase (complex I), succinate:quinone reductase (complex II), quinol oxidase (complexes III–IV), NADH-cytochrome c reductase (complexes I–III), and succinate-cytochrome c (complexes II–III) activities were assayed following an established method ([Takamiya et al., 1986]; [Miyadera et al., 2001]; [Matsumoto et al., 2008]; [Kido et al., 2010]; [Nihashi et al., 2017]).

Complex II–III = assay: Succinate-cytochrome c reductase (complexes II–III) activity, bovine mitochondria; format: biochemical
Method: as §3

Complex I = assay: NADH dehydrogenase (complex I) activity, bovine mitochondria; format: biochemical; conditions: at 5 μM
Method: as §3

Complex II = molecular target: T2, Complex II (Bos taurus, UniProt P35720+Q3T189+Q95123); assay: Succinate:quinone reductase (complex II) activity, bovine mitochondria; format: biochemical
T2 construct: from tissue; host or cells: bovine mitochondrial fraction / sub-mitochondrial particles

Complex III = molecular target: T3, Complex III (Bos taurus, UniProt P00157); assay: Quinol oxidase (complex III) activity, bovine mitochondria; format: biochemical; conditions: ubiquinol oxidase activity
T3 construct: from tissue; host or cells: bovine mitochondrial fraction / sub-mitochondrial particles

HBC-4 = assay: 39-cancer cell panel assay: HBC-4; format: cell-based; conditions: Homo sapiens, HBC4, Br
BSY-1 = assay: 39-cancer cell panel assay: BSY-1; format: cell-based; conditions: Homo sapiens, Br
HBC-5 = assay: 39-cancer cell panel assay: HBC-5; format: cell-based; conditions: Homo sapiens, HBC5, Br
MCF-7 = assay: 39-cancer cell panel assay: MCF-7; format: cell-based; conditions: Homo sapiens, MCF7, Br
MDA-MB-231 = assay: 39-cancer cell panel assay: MDA-MB-231; format: cell-based; conditions: Homo sapiens, Br
U251 = assay: 39-cancer cell panel assay: U251; format: cell-based; conditions: Homo sapiens, U-251, CNS
SF-268 = assay: 39-cancer cell panel assay: SF-268; format: cell-based; conditions: Homo sapiens, CNS
SF-295 = assay: 39-cancer cell panel assay: SF-295; format: cell-based; conditions: Homo sapiens, CNS
SF-539 = assay: 39-cancer cell panel assay: SF-539; format: cell-based; conditions: Homo sapiens, CNS
SNB-75 = assay: 39-cancer cell panel assay: SNB-75; format: cell-based; conditions: Homo sapiens, CNS
SNB-78 = assay: 39-cancer cell panel assay: SNB-78; format: cell-based; conditions: Homo sapiens, CNS
HCC2998 = assay: 39-cancer cell panel assay: HCC2998; format: cell-based; conditions: Homo sapiens, HCC 2998, Co
KM-12 = assay: 39-cancer cell panel assay: KM-12; format: cell-based, human; conditions: Co
HT-29 = assay: 39-cancer cell panel assay: HT-29; format: cell-based; conditions: Homo sapiens, Co
HCT-15 = assay: 39-cancer cell panel assay: HCT-15; format: cell-based; conditions: Homo sapiens, Co
HCT-116 = assay: 39-cancer cell panel assay: HCT-116; format: cell-based; conditions: Homo sapiens, Co
NCI-H23 = assay: 39-cancer cell panel assay: NCI-H23; format: cell-based; conditions: Homo sapiens, Lu
NCI-H226 = assay: 39-cancer cell panel assay: NCI-H226; format: cell-based; conditions: Homo sapiens, Lu
NCI-H522 = assay: 39-cancer cell panel assay: NCI-H522; format: cell-based; conditions: Homo sapiens, Lu
NCI-H460 = assay: 39-cancer cell panel assay: NCI-H460; format: cell-based; conditions: Homo sapiens, Lu
A549 = assay: 39-cancer cell panel assay: A549; format: cell-based; conditions: Homo sapiens, Lu
DMS273 = assay: 39-cancer cell panel assay: DMS273; format: cell-based; conditions: Homo sapiens, DMS-273, Lu
DMS114 = assay: 39-cancer cell panel assay: DMS114; format: cell-based; conditions: Homo sapiens, DMS-114, Lu
LOX-IMVI = assay: 39-cancer cell panel assay: LOX-IMVI; format: cell-based; conditions: Homo sapiens, Me
OVCAR-3 = assay: 39-cancer cell panel assay: OVCAR-3; format: cell-based; conditions: Homo sapiens, Ov
OVCAR-4 = assay: 39-cancer cell panel assay: OVCAR-4; format: cell-based; conditions: Homo sapiens, Ov
OVCAR-5 = assay: 39-cancer cell panel assay: OVCAR-5; format: cell-based; conditions: Homo sapiens, Ov
OVCAR-8 = assay: 39-cancer cell panel assay: OVCAR-8; format: cell-based; conditions: Homo sapiens, Ov
SK-OV-3 = assay: 39-cancer cell panel assay: SK-OV-3; format: cell-based; conditions: Homo sapiens
RXF-631L = assay: 39-cancer cell panel assay: RXF-631L; format: cell-based; conditions: Homo sapiens, Re
ACHN = assay: 39-cancer cell panel assay: ACHN; format: cell-based; conditions: Homo sapiens, Re
St-4 = assay: 39-cancer cell panel assay: St-4; format: cell-based; conditions: Homo sapiens
MKN1 = assay: 39-cancer cell panel assay: MKN1; format: cell-based; conditions: Homo sapiens, MKN-1, St
MKN7 = assay: 39-cancer cell panel assay: MKN7; format: cell-based; conditions: Homo sapiens, MKN-7, St
MKN28 = assay: 39-cancer cell panel assay: MKN28; format: cell-based; conditions: Homo sapiens, MKN-28, St
MKN45 = assay: 39-cancer cell panel assay: MKN45; format: cell-based; conditions: Homo sapiens, MKN-45, St
MKN74 = assay: 39-cancer cell panel assay: MKN74; format: cell-based; conditions: Homo sapiens, MKN-74, St
DU-145 = assay: 39-cancer cell panel assay: DU-145; format: cell-based; conditions: Homo sapiens, Pro
PC-3 = assay: 39-cancer cell panel assay: PC-3; format: cell-based; conditions: Homo sapiens, Pro

T1 sequence (Q02127 whole entry): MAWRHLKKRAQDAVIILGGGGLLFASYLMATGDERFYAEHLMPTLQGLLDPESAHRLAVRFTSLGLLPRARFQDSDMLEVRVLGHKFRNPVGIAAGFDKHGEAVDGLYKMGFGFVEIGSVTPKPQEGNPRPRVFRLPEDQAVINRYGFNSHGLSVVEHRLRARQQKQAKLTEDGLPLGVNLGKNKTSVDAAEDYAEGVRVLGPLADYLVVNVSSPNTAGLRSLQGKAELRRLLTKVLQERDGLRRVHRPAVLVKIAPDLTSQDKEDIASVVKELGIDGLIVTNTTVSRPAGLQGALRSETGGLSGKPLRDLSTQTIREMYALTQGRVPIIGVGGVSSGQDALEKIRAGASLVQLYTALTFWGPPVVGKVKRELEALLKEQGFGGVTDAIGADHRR
T2 sequence (P31039 45-665 partner limits assumed): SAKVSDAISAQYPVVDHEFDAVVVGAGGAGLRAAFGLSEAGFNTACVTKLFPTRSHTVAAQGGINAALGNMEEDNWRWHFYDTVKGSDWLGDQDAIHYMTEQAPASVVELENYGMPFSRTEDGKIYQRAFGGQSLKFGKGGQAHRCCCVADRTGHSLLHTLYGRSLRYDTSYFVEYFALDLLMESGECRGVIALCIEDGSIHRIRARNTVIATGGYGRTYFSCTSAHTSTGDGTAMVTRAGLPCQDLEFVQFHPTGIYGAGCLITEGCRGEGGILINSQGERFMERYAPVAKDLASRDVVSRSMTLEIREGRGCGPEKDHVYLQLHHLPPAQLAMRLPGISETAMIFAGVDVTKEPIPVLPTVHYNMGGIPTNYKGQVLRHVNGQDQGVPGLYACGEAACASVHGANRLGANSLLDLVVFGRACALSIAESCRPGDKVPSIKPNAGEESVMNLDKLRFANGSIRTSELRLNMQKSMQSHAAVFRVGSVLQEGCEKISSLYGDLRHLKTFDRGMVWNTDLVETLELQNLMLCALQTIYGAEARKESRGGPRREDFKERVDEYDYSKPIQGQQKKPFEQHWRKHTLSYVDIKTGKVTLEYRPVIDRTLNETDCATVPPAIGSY
T2 sequence (Q3T189 29-280): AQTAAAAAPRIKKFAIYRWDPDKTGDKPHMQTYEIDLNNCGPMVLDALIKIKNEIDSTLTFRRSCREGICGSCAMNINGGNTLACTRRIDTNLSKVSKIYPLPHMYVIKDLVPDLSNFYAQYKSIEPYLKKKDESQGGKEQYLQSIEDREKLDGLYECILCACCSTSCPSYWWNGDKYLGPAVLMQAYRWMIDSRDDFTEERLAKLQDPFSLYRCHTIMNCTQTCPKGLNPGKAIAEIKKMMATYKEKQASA
T2 sequence (P35720 30-169): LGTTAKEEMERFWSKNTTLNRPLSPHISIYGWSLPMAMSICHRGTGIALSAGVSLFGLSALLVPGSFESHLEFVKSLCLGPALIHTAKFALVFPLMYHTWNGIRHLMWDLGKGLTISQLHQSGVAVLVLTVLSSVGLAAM
T2 sequence (Q95123 56-158): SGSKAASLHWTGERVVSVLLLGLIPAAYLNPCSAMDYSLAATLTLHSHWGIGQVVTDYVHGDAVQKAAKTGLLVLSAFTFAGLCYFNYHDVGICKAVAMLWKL

Which results are given for `CC(=O)OC(C)/C(C)=C/CC/C(C)=C/Cc1c(O)c(Cl)c(C)c(C=O)c1O` (stereo not drawn) [Compound 7]?
IC50 [1]: 6.4 ± 0.2 nM; IC50 (DLD-1 cells; read-out: IC50 (μM) DLD-1 (24 h) Hypoxia nutrient (-), DLD-1, 24 h, hypoxia (1% oxygen), nutrient (-)): 2 ± 0.19 µM; IC50 (DLD-1 cells; read-out: IC50 (μM) DLD-1 (24 h) Normoxia nutrient (+), DLD-1, 24 h, normoxia, nutrient (+)): > 100 µM; IC50 (DLD-1 cells; DLD-1, 48 h, hypoxia (1% oxygen), nutrient (-), read-out: IC50 (μM) DLD-1 (48 h) Hypoxia nutrient (-)): 0.95 ± 0.059 µM; IC50 (DLD-1 cells; DLD-1, 48 h, normoxia, nutrient (+), read-out: IC50 (μM) DLD-1 (48 h) Normoxia nutrient (+)): > 100 µM; IC50 (HDF cells; read-out: IC50 (μM) HDF (24 h) Hypoxia nutrient (-), hypoxia (1% oxygen), nutrient (-)): 3.4 ± 0.36 µM; IC50 (HDF cells; read-out: IC50 (μM) HDF (24 h) Normoxia nutrient (+), normoxia, nutrient (+)): > 100 µM; IC50 (Complexes I–III): 0.46 ± 0.01 µM; IC50 (Complex II–III): 2.3 ± 0.16 µM; Inhibition (%) Complex I (Complex I): 15 ± 2.3%; inhibition at 5 µM (Complex II): 3.2 ± 6.7%; inhibition at 5 µM (Complex III): > 80%; GI50 (HBC-4): 5 µM; GI50 (BSY-1): 20 µM; GI50 (HBC-5): 25 µM; GI50 (MCF-7): 4.9 µM; GI50 (MDA-MB-231): 11 µM; GI50 (U251): 1.5 µM; GI50 (SF-268): 5 µM; GI50 (SF-295): 8 µM; GI50 (SF-539): 0.27 µM; GI50 (SNB-75): 22 µM; GI50 (SNB-78): 21 µM; GI50 (HCC2998): 13 µM; GI50 (μM) KM-12 (KM-12): 5.7 µM; GI50 (HT-29): 3.2 µM; GI50 (HCT-15): 0.58 µM; GI50 (HCT-116): 1.5 µM; GI50 (NCI-H23): 15 µM; GI50 (NCI-H226): 11 µM; GI50 (NCI-H522): 4.9 µM; GI50 (NCI-H460): 0.94 µM; GI50 (A549): 3.3 µM; GI50 (DMS273): 0.91 µM; GI50 (DMS114): 14 µM; GI50 (LOX-IMVI): 1.5 µM; GI50 (OVCAR-3): 13 µM; GI50 (OVCAR-4): 27 µM; GI50 (OVCAR-5): 18 µM; GI50 (OVCAR-8): 8.8 µM; GI50 (SK-OV-3): 12 µM; GI50 (RXF-631L): 7.5 µM; GI50 (ACHN): 9.9 µM; GI50 (St-4): 13 µM; GI50 (MKN1): 16 µM; GI50 (MKN7): 16 µM; GI50 (MKN28): 11 µM; GI50 (MKN45): 20 µM; GI50 (MKN74): 11 µM; GI50 (DU-145): 14 µM; GI50 (PC-3): 15 µM
